Data taken from PMC9850473, “Three-Component Reaction of 3-Formyl-6-Methylchromone, Primary Amines, and Secondary Phosphine Oxides: A Synthetic and Mechanistic Study” (ACS Omega, 2022).

What was measured:
[1] = In vitro cytotoxicity, fluorescent Resazurin assay, A549; assay type: cell-based; settings: human, A549 lung adenocarcinoma cells, 72 h incubation, 1–30 μM, mean ± standard deviation
[2] = In vitro cytotoxicity, fluorescent Resazurin assay, HL60; settings: human, HL60 (HL-60) promyelocytic leukemia cells, In vitro cytotoxicity [IC50, μM] HL60, HL60 cells, 72 h incubation, 1–30 μM, mean ± standard deviation
From the text: (§1) The in vitro cytotoxicity of the several synthesized compounds was also investigated. […] During the measurements, the fluorescent Resazurin assay as described previously was applied.[19]
(§2) Cells were purchased from the American Type Culture Collection (ATCC, Manassas, Virginia, USA). Human lung adenocarcinoma A549 cells were maintained in Dulbecco’s modified Eagle’s medium (DMEM), while mouse fibroblast NIH/3T3 and human promyelocytic leukemia HL-60 cells were maintained in Roswell Park Memorial Institute 1640 medium (RPMI-1640) containing 10% FCS. Media were supplemented with 2 mM GlutaMAX, 100 U/mL penicillin, and 100 μg/mL streptomycin (Life Technologies, Carlsbad, California, USA). Cell cultures were maintained at 37 °C in a humidified incubator in an atmosphere of 5% CO2 (Sanyo, Japan).
(§3) Cytotoxicity of the synthesized molecules was determined on A549, NIH/3T3, and HL-60 cells using the fluorescent Resazurin assay as described previously.[19]
(§4) Briefly, cells (A549 and NIH/3T3: 6000, HL-60: 120.000 cells/well) were seeded into 96-well plates (Corning Life Sciences) in media and incubated overnight. Test compounds were dissolved in 3-fold amounts of dimethyl sulfoxide (DMSO). Cells were treated with an increasing concentration of test compounds (1–30 μM). […] Cell viability was determined after 72 h incubation. Resazurin reagent (Sigma-Aldrich) was added at a final concentration of 25 μg/mL. After a 2 h incubation for at 37 °C, 5% CO2, fluorescence (530 nm excitation/580 nm emission) was recorded on a multimode microplate reader (Cytofluor4000, PerSeptive Biosytems). Viability was calculated with relation to untreated control cells and blank wells containing media without cells.

[3] = In vitro cytotoxicity, fluorescent Resazurin assay, NIH/3T3; settings: mouse, NIH/3T3 fibroblast cells
From the text: as §1, §2, §3, §4

[4] = system: human promyelocytic leukemia (HL60) cell line; test: In vitro cytotoxicity, fluorescent Resazurin assay, HL60; settings: read-out: In vitro cytotoxicity [IC50, μM] HL60, HL60 cells, 72 h incubation, 1–30 μM, mean ± standard deviation
From the text: as §1, §2, §3, §4

SMILES	melting point	IC50 at 72 h [1]	IC50 at 72 h [2]	IC50 at 72 h [3]	IC50 [4]
CCCCNC(c1coc2ccc(C)cc2c1=O)P(=O)(c1ccccc1)c1ccccc1 (stereo not shown) [1a, 3-[(Butylamino)(diphenylphosphoryl)methyl]-6-methyl-4H-chromen-4-one]	187 to 188 °C	–	–	–	–
Cc1ccc2occ(C(Nc3ccccc3)P(=O)(c3ccccc3)c3ccccc3)c(=O)c2c1 (stereo not shown) [1b, 3-[(Phenylamino)(diphenylphosphoryl)methyl]-6-methyl-4H-chromen-4-one]	239 to 240 °C	–	–	–	–
COc1ccc(NC(c2coc3ccc(C)cc3c2=O)P(=O)(c2ccccc2)c2ccccc2)cc1 (stereo not shown) [1c, 3-[(4-Methoxyphenylamino)(diphenylphosphoryl)methyl]-6-methyl-4H-chromen-4-one]	224 to 225 °C	–	–	–	–
Cc1ccc2occ(C(Nc3ccc(Cl)cc3)P(=O)(c3ccccc3)c3ccccc3)c(=O)c2c1 (stereo not shown) [1d, 3-[(4-Chlorophenylamino)(diphenylphosphoryl)methyl]-6-methyl-4H-chromen-4-one]	235 to 236 °C	–	–	–	–
Cc1cc(C)cc(P(=O)(c2cc(C)cc(C)c2)C2Oc3ccc(C)cc3C(=O)/C2=C/NCc2ccccc2)c1 (stereo not shown) [8d, (Z)-3-[(benzylamino)methylene]-2-[bis(3,5-dimethylphenyl)phosphoryl]-6-methylchroman-4-one]	–	18.5 ± 1.08 µM	~15 µM	14.2 ± 1.12 µM	13.2 ± 1.32 µM
CC(C)C[C@H](NC(=O)[C@H](Cc1ccccc1)NC(=O)c1cnccn1)B(O)O [bortezomib, reference compound]	–	–	0.00742 µM	–	–
Cc1ccc2occ(C(O)P(=O)(c3ccccc3)c3ccccc3)c(=O)c2c1 (stereo not shown) [compound 3, 3-[(Diphenylphosphoryl)(hydroxy)methyl]-6-methyl-4H-chromen-4-one]	190 to 192 °C	–	–	–	–
Cc1ccc(P(=O)(c2ccc(C)cc2)C(Nc2ccccc2)c2coc3ccc(C)cc3c2=O)cc1 (stereo not shown) [compound 4, 3-[(Phenylamino)(di-p-tolylphosphoryl)methyl]-6-methyl-4H-chromen-4-one]	245 to 246 °C	–	–	–	–
Cc1cc(C)cc(P(=O)(c2cc(C)cc(C)c2)C(Nc2ccccc2)c2coc3ccc(C)cc3c2=O)c1 (stereo not shown) [compound 5, 3-{(Phenylamino)[bis(3,5-dimethylphenyl)phosphoryl]methyl}-6-methyl-4H-chromen-4-one]	229 to 230 °C	–	–	–	–
Cc1ccc2occ(C(Nc3ccccc3)P(=O)(c3ccc4ccccc4c3)c3ccc4ccccc4c3)c(=O)c2c1 (stereo not shown) [compound 6, 3-{(Phenylamino)[di(naphthalen-2-yl)phosphoryl]methyl}-6-methyl-4H-chromen-4-one]	223 to 224 °C	–	–	–	–

The next lines start with results.

melting point	SMILES	IC50 at 72 h [1]	IC50 at 72 h [2]	IC50 at 72 h [3]	IC50 [4]
192 to 193 °C	CCCCN/C=C1/C(=O)c2cc(C)ccc2OC1P(=O)(c1ccccc1)c1ccccc1 (stereo not shown) [2a, (Z)-3-[(Butylamino)methylene]-2-(diphenylphosphoryl)-6-methylchroman-4-one]	–	–	–	–
243 to 244 °C	Cc1ccc2c(c1)C(=O)/C(=C/Nc1ccccc1)C(P(=O)(c1ccccc1)c1ccccc1)O2 (stereo not shown) [2b, (Z)-3-[(Phenylamino)methylene]-2-(diphenylphosphoryl)-6-methylchroman-4-one]	–	–	–	–
198 to 199 °C	Cc1ccc2c(c1)C(=O)/C(=C/NC1CCCCC1)C(P(=O)(c1ccccc1)c1ccccc1)O2 (stereo not shown) [2c, (Z)-3-[(Cyclohexylamino)methylene]-2-(diphenylphosphoryl)-6-methylchroman-4-one]	–	–	–	–
196 to 197 °C	Cc1ccc2c(c1)C(=O)/C(=C/NCc1ccccc1)C(P(=O)(c1ccccc1)c1ccccc1)O2 (stereo not shown) [2d, (Z)-3-[(Benzylamino)methylene]-2-(diphenylphosphoryl)-6-methylchroman-4-one]	–	–	–	–
182 to 183 °C	Cc1ccc2c(c1)C(=O)/C(=C/NC(c1ccccc1)c1ccccc1)C(P(=O)(c1ccccc1)c1ccccc1)O2 (stereo not shown) [2e, (Z)-3-[(Benzhydrylamino)methylene]-2-(diphenylphosphoryl)-6-methylchroman-4-one]	> 30 µM	9.91 ± 1.28 µM	> 30 µM	–
176 to 177 °C	Cc1ccc2c(c1)C(=O)/C(=C/NCCCO)C(P(=O)(c1ccccc1)c1ccccc1)O2 (stereo not shown) [2f, (Z)-3-[(Propanolamino)methylene]-2-(diphenylphosphoryl)-6-methylchroman-4-one]	> 30 µM	27.4 ± 1.13 µM	> 30 µM	–
181 to 182 °C	Cc1ccc2c(c1)C(=O)/C(=C/NCCO)C(P(=O)(c1ccccc1)c1ccccc1)O2 (stereo not shown) [2g, (Z)-3-[(Ethanolamino)methylene]-2-(diphenylphosphoryl)-6-methylchroman-4-one]	> 30 µM	> 30 µM	20.7 ± 1.02 µM	–
186 to 187 °C	CCCCN/C=C1/C(=O)c2cc(C)ccc2OC1P(=O)(c1ccc(C)cc1)c1ccc(C)cc1 (stereo not shown) [7a, (Z)-3-[(Butylamino)methylene]-2-(di-p-tolylphosphoryl)-6-methylchroman-4-one]	–	–	–	–
205 to 206 °C	Cc1ccc(P(=O)(c2ccc(C)cc2)C2Oc3ccc(C)cc3C(=O)/C2=C/NC2CCCCC2)cc1 (stereo not shown) [7b, (Z)-3-[(Cyclohexylamino)methylene]-2-(di-p-tolylphosphoryl)-6-methylchroman-4-one]	–	–	–	–
198 to 199 °C	Cc1ccc(P(=O)(c2ccc(C)cc2)C2Oc3ccc(C)cc3C(=O)/C2=C/NCc2ccccc2)cc1 (stereo not shown) [7c, (Z)-3-[(Benzylamino)methylene]-2-(di-p-tolylphosphoryl)-6-methylchroman-4-one]	–	–	–	–
145 to 146 °C	CCCCN/C=C1/C(=O)c2cc(C)ccc2OC1P(=O)(c1cc(C)cc(C)c1)c1cc(C)cc(C)c1 (stereo not shown) [8a, (Z)-2-[Bis(3,5-dimethylphenyl)phosphoryl]-3-[(butylamino)methylene]-6-methyl-chroman-4-one]	> 30 µM	~15 µM	> 30 µM	14.8 ± 1.13 µM
155 to 156 °C	Cc1cc(C)cc(P(=O)(c2cc(C)cc(C)c2)C2Oc3ccc(C)cc3C(=O)/C2=C/NC2CCCCC2)c1 (stereo not shown) [8c, (Z)-2-[Bis(3,5-dimethylphenyl)phosphoryl]-3-[(cyclohexylamino)methylene]-6-methylchroman-4-one]	> 30 µM	~15 µM	> 30 µM	–
192 to 193 °C	CCCCN/C=C1/C(=O)c2cc(C)ccc2OC1P(=O)(c1ccc2ccccc2c1)c1ccc2ccccc2c1 (stereo not shown) [9a, (Z)-3-[(Butylamino)methylene]-2-[di(naphthalen-2-yl)phosphoryl]-6-methylchroman-4-one]	–	–	–	–
171 to 172 °C	Cc1ccc2c(c1)C(=O)/C(=C/NC1CCCCC1)C(P(=O)(c1ccc3ccccc3c1)c1ccc3ccccc3c1)O2 (stereo not shown) [9b, (Z)-3-[(Cyclohexylamino)methylene]-2-[di(naphthalen-2-yl)phosphoryl]-6-methylchroman-4-one]	–	–	–	–
